Legend:
Type in all cases: functional
[1] = system: Staphylococcus aureus; assay: Antimicrobial activity against methicillin-resistant Staphylococcus aureus 5 at 100 ug/disk after 24 hrs by disk diffusion method; conditions: read-out: IZ
[2] = system: Staphylococcus aureus; assay: Antimicrobial activity against methicillin-resistant Staphylococcus aureus COL at 100 ug/disk after 24 hrs by disk diffusion method; conditions: read-out: IZ
[3] = system: Helicobacter pylori; assay: Antimicrobial activity against Helicobacter pylori ATCC 43504 at 100 ug/disk after 4 days by disk diffusion method; conditions: ATCC 43504, 96 h, read-out: IZ
[4] = system: Helicobacter pylori; assay: Antimicrobial activity against Helicobacter pylori ATCC 43504 at 0.25 ug/disk after 4 days by disk diffusion method; conditions: ATCC 43504, 96 h, read-out: IZ
[5] = system: Staphylococcus aureus; assay: Antimicrobial activity against methicillin-resistant Staphylococcus aureus COL at 20 ug/disk after 24 hrs by disk diffusion method; conditions: read-out: IZ
[6] = system: Staphylococcus aureus; assay: Antimicrobial activity against methicillin-resistant Staphylococcus aureus 5 at 20 ug/disk after 24 hrs by disk diffusion method; conditions: read-out: IZ

SMILES | zone of inhibition at 100 µg/disc [1] | zone of inhibition at 100 µg/disc [2] | zone of inhibition at 100 µg/disc [3] | zone of inhibition at 0.25 µg/disc [4] | zone of inhibition at 20 µg/disc [5] | zone of inhibition at 20 µg/disc [6]
COc1c(O)c(OC)c2oc(-c3ccc(O)cc3)cc(=O)c2c1O | 23.8 mm | 12.5 mm | 10.5 mm |  |  | 
CC1(C)S[C@@H]2[C@H](NC(=O)[C@H](N)c3ccc(O)cc3)C(=O)N2[C@H]1C(=O)O [AMOXICILLIN] |  |  |  | 33 mm |  | 
CC(=O)OCC1=C(C(=O)O)N2C(=O)[C@@H](NC(=O)CSc3ccncc3)[C@H]2SC1 [CEPHAPIRIN] |  |  |  |  | 8.2 mm | 9.4 mm
COc1cc(-c2cc(=O)c3c(O)c(OC)c(O)c(OC)c3o2)ccc1O [SUDACHITIN] | 25.4 mm | 12 mm | 14 mm |  |  | 

— ChEMBL document CHEMBL1158039, “Chemical constituents from the peels of Citrus sudachi” (2006)
